Entries after “also recorded” stand apart in the source; their conditions may differ.
Tests used:
[1] = tested on: MCF-7 cells; assay: Inhibition of MCF-7 breast cancer cell growth (sulforhodamine B); assay type: cell-based; conditions: Homo sapiens, MCF7; 48 hours drug exposure; ± SD
Method: (§1) Electrophoretically homogeneous bovine brain tubulin was prepared as described previously (20). Nonradiolabeled colchicine was obtained from Sigma and [^3 H]colchicine from Dupont-NEN. Stock 2.0 M solutions of monosodium glutamate were adjusted to pH 6.6 with HCl. MCF-7 breast cancer cells were obtained from Dr. D. Scudiero, National Cancer Institute. Curacin A is referred to in the tables provided below, and was obtained as stated in Gerwick's U.S. Pat. No. 5,324,739. All data presented for curacin A represent averages obtained in contemporaneous experiments with natural and synthetic drug. All drugs were dissolved in dimethyl sulfoxide, and control reaction mixtures contained an equivalent amount of the solvent.
IC50 values for inhibition of cell growth were obtained by measuring the amount of total cell protein with the sulforhodamine B assay as described by Skehan et al., "New Colorimetric Cytotoxicity Assay for Anticancer-drug Screening," J. Natl. Cancer Inst., 82:1107-1112 (1990). MCF-7 cells were grown in RPMI 1640 medium containing 17% fetal calf serum, 12 μg/mL gentamicin sulfate and 2 mM glutamine at 37° in 5% CO2. Confluent cells were trypsinized, diluted 40-fold, and seeded into 96-well microtiter plates. After 24 hours of growth without drug, medium with varying concentrations of drug was added to different wells (final concentration of dimethyl sulfoxide, 0.1%). […] The values presented are averages from at least two independent experiments.
(§2) The R1 -R3 substituents referred to in Table 1 are with reference to Formula 11, which, for convenience, is reproduced above Table 1. [drawing 13]

[2] = tested on: tubulin; assay: Inhibition of [3H]colchicine binding to tubulin (DEAE-cellulose filter method); parameters: species or system bovine; conditions: 5.0 μM [3H]colchicine, 1.0 μM tubulin; for Inhibition of Colchicine Binding % Inhibition ± SD: inhibitor 5.0 μM; for Inhibition of Colchicine Binding % Inhibition ± SD (values in parentheses): inhibitor 50 μM
Method: as §1
The binding of [^3 H]colchicine to tubulin was measured by the DEAE-cellulose filter method as described by Kang et al., "N-acetylcolchinol O-methyl Ether and Thiocolchicine, Potent Analogs of Colchicine Modified in the C Ring: Evaluation of the Mechanistic Basis for Their Enhanced Biological Properties," J. Biol. Chem. 265:10255-1-259 (1990). Reaction mixtures contained 1.0 μM (0.1 mg/mL) tubulin, 1.0 M monosodium glutamate, 0.1 M glucose-1-phosphate, 1.0 mM MgCl2, 1.0 mM GTP, 0.5 mg/mL bovine serum albumin, 5% (v/v) dimethyl sulfoxide, 5.0 μM [^3 H]colchicine and inhibitor at either 5.0 or 50 μM as indicated. These reaction conditions were used because they strongly stabilize the colchicine binding activity of tubulin. The values presented represent averages of three experiments, each with duplicate samples.
as §2

[3] = tested on: tubulin; assay: Inhibition of tubulin polymerization (turbidimetric, 350 nm); assay type: biochemical, bovine; conditions: 1.0 mg/mL tubulin, 0.8 M glutamate, 30°, 20 minutes; ± SD
Method: as §1
Tubulin polymerization was followed turbidimetrically at 350 nm in Gilford model 250 spectrophotometers equipped with electronic temperature controllers. All concentrations refer to the final reaction volume of 0.25 mL, although the preincubation was performed in 0.24 mL, followed by addition of 10 μL of 10 mM GTP. Reaction mixtures contained 1.0 mg/mL tubulin, 0.8 M monosodium glutamate, 4% dimethyl sulfoxide and varying drug concentrations. Samples were preincubated for 15 minutes at 30° and chilled on ice. GTP was added to each reaction mixture, and these were placed in cuvettes held at 0°. Baselines were established, the temperature was raised to 30° (at a rate of about 0.5°/sec), and polymerization was followed for 20 minutes. IC50 values were determined by graphical interpolation of experimental points, with drug-containing samples compared to control reaction mixtures containing dimethyl sulfoxide but no drug. At least three independent IC50 values were obtained with each compound.
as §2

[4] = tested on: β-tubulin; conditions: background; cited from earlier work
[5] = Chemical stability on storage neat
[6] = tested on: cell growth and mitosis; conditions: background; cited from earlier work
[7] = tested on: colchicine site of tubulin; conditions: background; cited from earlier work
[8] = tested on: microtubule ends; conditions: low concentrations; background; cited from earlier work
[9] = tested on: brine shrimp; conditions: Example 1 of U.S. Pat. No. 5,324,739; cited from earlier work
[10] = stored neat; cited from earlier work
[11] = tested on: tubulin; conditions: background; cited from earlier work
[12] = tested on: microtubule assembly; conditions: background; cited from earlier work
[13] = tested on: antimitotic activity; assay: Biological activity of isolated curacins; conditions: various tests
[14] = tested on: 60 different human tumor cell lines; assay: NCI 60-cell line screen / mode of action of curazole; assay type: cell-based; conditions: COMPARE mean-graph profiles / 60-cell line assay
Method: In these examples, curazole was subjected to the drug screening procedure employed by the National Cancer Institute for the screening of drugs having possible anticancer utility. The screening procedure employed a diverse, disease-oriented panel consisting of 60 different human tumor cell lines organized into seven disease-specific subpanels. Curazole was tested over a wide range of concentrations for cytotoxic or growth-inhibitory effects against each cell line comprising the panel. The seven subpanels represented diverse histologies (leukemias, melanomas, and tumors of the lung, colon, kidney, ovary, and brain).
Curazole was tested over a period of several days. During this period the cells were continuously exposed to five log10 -spaced concentrations of the drug starting at about 10^-4 μg/mL. The tests produced 60 individual dose-response curves, one for each cell line (i.e., one for each example).
To produce data for the mean-graph format shown in FIG. 2, a concentration of the extract that produced a target level response was calculated for each cell line. Three different response parameters were evaluated. […] The second response parameter was the total growth inhibition ("TGI"), which is the concentration at which the number of tumor cells remaining at the end of the incubation period substantially equaled the number of tumor cells existing at the start of the incubation period. […]

Row | SMILES | IC50 [1] [nM] | Inhibition of Colchicine Binding % Inhibition ± SD [2] [%] | IC50 [3] [nM] | biological activity, particularly antimitotic activity [13] | other results
1 | C=CCCc1nc(/C=C\CC/C=C/C=C(\C)CC[C@H](CC=C)OC)cs1 [1-butene derivative] | 300 ± 200 | 83 ± 6 | 920 ± 200 |  | 
2 | CCC[C@@H](CC/C(C)=C/C=C/CCCC[C@@H]1CSC([C@@H]2C[C@@H]2C)=N1)OC [C3,4,15,16 Tetrahydro, 3,4,15,16-tetrahydrocuracin A] | 3300 ± 2000 | 1 ± 1 | 4600 ± 1000 |  | Inhibition of Colchicine Binding % Inhibition ± SD (values in parentheses) [2]: 28 ± 6%
3 | C=CCC1(CC/C(C)=C/C=C/CC/C=C\[C@@H]2CSC([C@@H]3C[C@@H]3C)=N2)OCCO1 [C13 Ethylene-dioxy] | 30 ± 10 | 92 ± 1 | 780 ± 300 |  | 
4 | C=CC[C@H](O)CC/C(C)=C/C=C/CC/C=C\[C@@H]1CSC([C@H]2C[C@@H]2C)=N1 [C13 Hydroxyl, Epi C19] | 610 ± 200 | 71 ± 5 | 730 ± 100 |  | 
5 | C=CC[C@H](O)CC/C(C)=C/C=C/CC/C=C\[C@@H]1CSC([C@@H]2C[C@@H]2C)=N1 [C13 Hydroxyl] | 450 ± 20 | 82 ± 7 | 870 ± 90 |  | 
6 | C=CC[C@@H](CC/C(C)=C/C=C/CC/C=C\[C@@H]1CSC([C@H]2C[C@@H]2C)=N1)OCOC [C13 Methyl-methoxy, Epi C19] | 3100 ± 2000 | 16 ± 3 | 3200 ± 300 |  | Inhibition of Colchicine Binding % Inhibition ± SD (values in parentheses) [2]: 32 ± 4%
7 | C=CC[C@@H](CC/C(C)=C/C=C/CC/C=C\[C@@H]1CSC([C@@H]2C[C@@H]2C)=N1)OCOC [C13 Methyl-methoxy] | 220 | 81 ± 6 | 640 ± 200 |  | 
8 | CCC[C@@H](CC/C(C)=C/C=C/CC/C=C\[C@@H]1CSC([C@@H]2C[C@@H]2C)=N1)OC [C15,16-dihydro] | 46 | 85 ± 7 | 1200 ± 200 |  | 
9 | C=CC[C@@H](CC/C(C)=C/C=C/CC/C=C\[C@@H]1CSC([C@@H]2C[C@@H]2C)=N1)OC [Curacin A] | 38 ± 10 | 94 ± 2 | 720 ± 200 | substantial biological activity, particularly antimitotic activity | formation of the cys239-cys354 cross link [4]: inhibits formation of the cys239-cys354 cross link; stability ([5]; particularly when stored neat): limited stability; biological activity after storage neat ([5]; stored neat versus stored under a solvent): less biological activity than curacin A stored under a solvent; inhibition of cell growth and mitosis [6]: potent inhibitor of cell growth and mitosis; binding at colchicine site of tubulin [7]: binding rapidly and dissociating slowly from tubulin; also recorded: binding rapidly and tightly at the colchicine site of tubulin; inhibition of the binding of colchicine to tubulin [7]: potent competitive inhibitor of the binding of colchicine to tubulin; tubulin turnover at microtubule ends [8]: increase tubulin turnover at microtubule ends; effectiveness for reducing a population of arthropods (brine shrimp) [9]: effectiveness; chemical stability [10]: limited chemical stability; uncoupled GTPase reaction [11]: stimulated the uncoupled GTPase reaction; inhibition of microtubule assembly [12]: inhibits microtubule assembly
10 | C=CC[C@@H](CC/C(C)=C/C=C\CC/C=C\[C@@H]1CSC([C@@H]2C[C@@H]2C)=N1)OC [Curacin B] |  |  |  | substantial biological activity, particularly antimitotic activity | 
11 | C=CC[C@@H](CC/C(C)=C\C=C\CC/C=C\[C@@H]1CSC([C@@H]2C[C@@H]2C)=N1)OC [Curacin C] |  |  |  | substantial biological activity, particularly antimitotic activity | 
12 | C=CC[C@@H](CC/C=C/C=C/CC/C=C\[C@@H]1CSC([C@@H]2C[C@@H]2C)=N1)OC [Curacin D] | 340 ± 100 | 53 ± 10 |  | substantial biological activity, particularly antimitotic activity | 
13 | C=CC[C@@H](CC/C(C)=C/C=C/CC/C=C\c1csc([C@@H]2C[C@@H]2C)n1)OC [Curazole, [13R,19R,21S]-1,2-didehydrocuracin A] | 300 ± 70 | 74 ± 11 | 740 ± 10 |  | mode of action [14]: functions as an antimitotic and has a mode of action similar to a number of conventional antineoplastics

— patent publication US6057348A (Oregon State University, priority 1998, dated 2000)
